Blank lines part the entries; values can stand above or below the molecule they belong to.
Experiments:
CSK = biological target: T1, CSK (Homo sapiens, UniProt P41240); assay: Tyrosine kinase assay (Kinase Selectivity System TK-2, ADP-Glo); assay type: biochemical; settings: 1 h incubation, mean ± SD of four experiments
T1 construct: purchased Promega

Lck = biological target: T2, Lck (Homo sapiens, UniProt P06239); assay: as above; assay type: biochemical; settings: 1 h incubation, mean ± SD of four experiments
T2 construct: purchased Promega

Src = biological target: T3, Src (Homo sapiens, UniProt P12931); assay: as above; assay type: biochemical; settings: 1 h incubation, mean ± SD of four experiments
T3 construct: purchased Promega

A549 = assay: Cytotoxicity studies (MTS), antiproliferative activity; assay type: cell-based, human; settings: for IC50: Homo sapiens, A549, 72 h, MTS; for Selectivity index A549: versus NHDF
Excerpt: (§1) In contrast, the other cell lines studied represent common cancers found in the human population. Nevertheless, these cell lines are characterised by a different landscape of kinase expression, as reported in[36]. In chronic leukaemia cells, an aberration of the Philadelphia chromosome is common in which a fragment of chromosome 9 is displaced to chromosome 22, leading to the formation of the oncogenic protein BCR-ABL. The altered structure of the protein leads to abnormal activity that promotes excessive growth and differentiation of cells even in the absence of growth factors, as well as inhibition of apoptosis and formation of metastases. Moreover, the status of the TP53 gene in leukaemia is not insignificant. Mutations of the TP53 gene occur in more than 50% of all cancers, leading to increased metastasis and an overall poor prognosis[38]^,[39]. The p53 protein encoded by this gene plays a pivotal role in controlling cell division or cell fate when damage is detected. […] Therefore, interaction between the signalling network of the BCR-ABL pathway and p53 often results in an impairment of p53 function and survival[43]^,[44]. […] Selectivity studies were performed on normal human fibroblast – NHDF cell line.
(§2) M. Rusin from the Maria Sklodowska-Curie Memorial Cancer Centre and Institute of Oncology in Gliwice, Poland. […] G. Kramer-Marek from the Institute of Cancer Research in London, United Kingdom. The human suspension chronic myeloids leukaemia cell line K562 and the pancreatic ductal adenocarcinoma cell line PANC-1 were purchased from Merck. The normal human dermal fibroblasts cell line NHDF were obtained from PromoCell. All adherent cancer cell lines were cultured in Dulbecco’s Modified Eagle’s medium (DMEM) supplemented with 10% heat-inactivated foetal bovine serum – FBS (all from Merck). […] Each complete medium contained a mixture of two antibiotics - penicillin and streptomycin (1% v/v; Gibco). Cell lines were cultured at 37 °C with 5% CO2 humidified atmosphere.
(§3) The assay was carried out after 72 h of incubation with different concentrations of the tested compounds. Then DMEM without phenol red was added to each well with CellTiter 96®AQueous One Solution-MTS (Promega) solution and incubated for 1 h or 3 h (PANC-1) at 37 °C. The optical densities of the samples were measured at 490 nm using a multi-plate reader (Synergy 4, BioTek). […] Each compound was tested in triplicate in a single experiment and each experiment was performed three or four times.

HCT 116 p53+/+ = assay: as above; assay type: cell-based, human; settings: for IC50: Homo sapiens, HCT-116, 72 h, MTS; for Selectivity index HCT 116 p53+/+: versus NHDF
Excerpt: as §1, §2, §3

HCT 116 p53−/− = assay: as above; assay type: cell-based, human; settings: for IC50: Homo sapiens, HCT-116, 72 h, MTS; for Selectivity index HCT 116 p53-/-: versus NHDF
Excerpt: as §1, §2, §3

K562 = assay: as above; assay type: cell-based, human; settings: for IC50: Homo sapiens, K562, 72 h, MTS; for Selectivity index K562: versus NHDF
Excerpt: as §1, §2, §3

MCF-7 = assay: as above; assay type: cell-based, human; settings: for IC50: Homo sapiens, MCF7, 72 h, MTS; for Selectivity index MCF-7: versus NHDF
Excerpt: as §1, §2, §3

PANC-1 = assay: as above; assay type: cell-based, human; settings: for IC50: Homo sapiens, PANC-1, 72 h, MTS; for Selectivity index PANC-1: versus NHDF
Excerpt: as §1, §2, §3

U-251 = assay: as above; assay type: cell-based, human; settings: for IC50: Homo sapiens, U-251, 72 h, MTS; for Selectivity index U-251: versus NHDF
Excerpt: as §1, §2, §3

K562 cells = assay: Analysis of mRNA expression (RT-qPCR); assay type: cell-based, human; settings: 16 h; IS1 50 µM, IS8 12 µM, IS10 20 µM, imatinib 2 µM, GNF-2 2 µM
Excerpt: In the next step, the inhibitory potential of the tested compounds at the gene and protein levels was verified in K562 cells. For this purpose, we examined changes in the expression of the ABL signalling pathway and ABL downstream targets after exposure to IS1, IS8 and IS10. […] The enhanced transcription of the ABL gene might be related to the low protein level that was reached after exposure to the tested drugs. Thus, the cellular machinery could induce increased protein synthesis to counteract the effects of inhibition. […] The second gene studied, SRC, is involved in signal transduction from growth factors and receptors. Similar to ABL, the Src protein has oncogenic activity and is overexpressed in cancer cells. It is also important to emphasise that both kinases form a specific direct signalling network, as […].
Reverse transcription was carried out with 1 μg total RNA using a ProtoScript M-MuLV First Strand cDNA Synthesis Kit (New England BioLabs). The RT-qPCR was performed using a CTX96 Real-Time PCR Detection System (Biorad) in a 10 μL reaction volume containing Luna Universal qPCR Master Mix (New England BioLabs), specific primer pair mix and cDNA. The PCR reaction was performed as follows: initial denaturation at 95 °C for 60 s; followed by 40 cycles of denaturation at 95 °C, 15 s; annealing (primer-specific temperature for 30 s) and extension at 72 °C for 30 s. Melting curve analysis was used to determine the specific PCR products. The results were analysed based on comparison of the expression of the target genes with the reference gene – HPRT1 using the 2^−^ΔΔ^CT method. Experiments were performed at least four times.

T3 sequence (P12931 whole entry): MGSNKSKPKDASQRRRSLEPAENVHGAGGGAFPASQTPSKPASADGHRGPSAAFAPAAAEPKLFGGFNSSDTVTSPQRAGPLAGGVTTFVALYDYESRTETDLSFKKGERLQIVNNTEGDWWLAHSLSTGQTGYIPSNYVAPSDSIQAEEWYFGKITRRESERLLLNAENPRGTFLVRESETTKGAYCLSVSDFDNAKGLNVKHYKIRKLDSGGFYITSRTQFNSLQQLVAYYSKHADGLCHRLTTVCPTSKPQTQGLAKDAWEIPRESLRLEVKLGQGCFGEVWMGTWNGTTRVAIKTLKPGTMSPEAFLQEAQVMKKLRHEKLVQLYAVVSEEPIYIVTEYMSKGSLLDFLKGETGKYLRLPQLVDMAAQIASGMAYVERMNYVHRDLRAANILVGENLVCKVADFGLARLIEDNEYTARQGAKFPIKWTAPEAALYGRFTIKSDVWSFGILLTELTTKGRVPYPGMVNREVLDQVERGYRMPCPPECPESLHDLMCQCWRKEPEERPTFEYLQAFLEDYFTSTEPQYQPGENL
T2 sequence (P06239 whole entry): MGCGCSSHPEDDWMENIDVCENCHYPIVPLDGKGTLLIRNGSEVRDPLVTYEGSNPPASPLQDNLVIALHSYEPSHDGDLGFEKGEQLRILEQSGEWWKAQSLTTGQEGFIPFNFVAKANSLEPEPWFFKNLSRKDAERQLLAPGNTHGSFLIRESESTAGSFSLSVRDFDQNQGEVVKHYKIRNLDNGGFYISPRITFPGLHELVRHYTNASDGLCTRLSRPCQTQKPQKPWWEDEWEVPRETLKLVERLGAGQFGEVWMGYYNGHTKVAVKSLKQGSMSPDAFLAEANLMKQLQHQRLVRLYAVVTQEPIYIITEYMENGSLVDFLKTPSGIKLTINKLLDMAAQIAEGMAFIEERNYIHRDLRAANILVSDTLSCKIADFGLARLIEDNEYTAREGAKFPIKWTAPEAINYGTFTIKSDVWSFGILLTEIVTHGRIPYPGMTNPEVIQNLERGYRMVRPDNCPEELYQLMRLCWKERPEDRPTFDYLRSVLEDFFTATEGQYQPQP

Structure (SMILES): NC(=O)c1cccc(-c2cc(Nc3ccc(OC(F)(F)F)cc3)ncn2)c1 [GNF-2, reference compound]
inhibition at 0.5 µM (CSK): 0% | inhibition at 0.5 µM (Lck): 0% | inhibition at 0.5 µM (Src): 0% | IC50 (A549): > 25 µM | Selectivity index A549 (A549): 1.00 | IC50 (HCT 116 p53+/+): > 25 µM | Selectivity index HCT 116 p53+/+ (HCT 116 p53+/+): 1.00 | IC50 (HCT 116 p53−/−): > 25 µM | IC50 (K562): 208 ± 45 nM | Selectivity index K562 (K562): > 120.19 | IC50 (MCF-7): > 25 µM | Selectivity index MCF-7 (MCF-7): 1.00 | IC50 (PANC-1): > 25 µM | Selectivity index PANC-1 (PANC-1): 1.00 | IC50 (U-251): > 25 µM | Selectivity index U-251 (U-251): 1.00 | Expression of the ABL gene (mRNA) (K562 cells): significantly enhanced | SRC mRNA levels (K562 cells): significant decrease

inhibition at 0.5 µM (CSK): 51.1 ± 5.72% | Inhibition of tyrosine kinase activity [%] Lck (Lck; 0.5 μM): 79.08 ± 3.51% | inhibition at 0.5 µM (Lck): 79% | Inhibition of tyrosine kinase activity [%] Src (Src; 0.5 μM): 79.52 ± 9.56% | inhibition at 0.5 µM (Src): 79%
Structure (SMILES): COc1ccccc1/C=C/c1nc(Sc2ccccc2Cl)c2ccccc2n1 [IS1, 2-[(E)-2–(2-methoxyphenyl)ethenyl]-4–(2-chlorophenylthio)quinazoline]
IC50 (A549): > 25 µM | Selectivity index A549 (A549): 1.00 | IC50 (HCT 116 p53+/+): > 25 µM | Selectivity index HCT 116 p53+/+ (HCT 116 p53+/+): 1.00 | IC50 (HCT 116 p53−/−): > 25 µM | Selectivity index HCT 116 p53-/- (HCT 116 p53−/−): 1.00 | IC50 (K562): 6430 ± 1200 nM | Selectivity index K562 (K562): > 3.89 | IC50 (MCF-7): 18.5 ± 3.87 µM | Selectivity index MCF-7 (MCF-7): 1.35 | IC50 (PANC-1): > 25 µM | Selectivity index PANC-1 (PANC-1): 1.00 | IC50 (U-251): > 25 µM | Selectivity index U-251 (U-251): 1.00 | Expression of the ABL gene (mRNA) (K562 cells): slight non-significant decrease | SRC mRNA levels (K562 cells): significant decrease

inhibition at 0.5 µM (CSK): 0% | inhibition at 0.5 µM (Lck): 0% | inhibition at 0.5 µM (Src): 5.12 ± 0.96%
Structure (SMILES): COc1ccccc1/C=C/c1nc(Sc2cccc(O)c2)c2ccccc2n1 [IS8, 3-{2-[(E)-2–(2-methoxyphenyl)ethenyl]quinazolin-4-ylthio}phenol]
IC50 (A549): > 25 µM | Selectivity index A549 (A549): 1.00 | IC50 (HCT 116 p53+/+): > 25 µM | Selectivity index HCT 116 p53+/+ (HCT 116 p53+/+): 1.00 | IC50 (HCT 116 p53−/−): > 25 µM | Selectivity index HCT 116 p53-/- (HCT 116 p53−/−): 1.00 | IC50 (K562): 1090 ± 299 nM | IC50 (MCF-7): 8.03 ± 0.958 µM | Selectivity index MCF-7 (MCF-7): 3.11 | IC50 (PANC-1): 17.9 ± 1.32 µM | Selectivity index PANC-1 (PANC-1): 1.40 | IC50 (U-251): 25 ± 2.53 µM | Selectivity index U-251 (U-251): 1.00 | CCNE2 expression (mRNA) (K562 cells): significant decrease

inhibition at 0.5 µM (CSK): 0% | inhibition at 0.5 µM (Lck): 28.1 ± 5.74% | inhibition at 0.5 µM (Src): 0%
Structure (SMILES): COc1ccccc1/C=C/c1nc(Sc2ccc3c(c2)OCO3)c2ccccc2n1 [IS10, 5-{2-[(E)-2–(2-methoxyphenyl)ethenyl]quinazolin-4-ylthio}-2H-1,3-benzodioxole]
IC50 (A549): > 25 µM | Selectivity index A549 (A549): 1.00 | IC50 (HCT 116 p53+/+): 10.7 ± 0.33 µM | Selectivity index HCT 116 p53+/+ (HCT 116 p53+/+): 2.33 | IC50 (HCT 116 p53−/−): 9.43 ± 1.49 µM | Selectivity index HCT 116 p53-/- (HCT 116 p53−/−): 2.65 | IC50 (K562): 2040 ± 454 nM | Selectivity index K562 (K562): > 12.24 | IC50 (MCF-7): 16.3 ± 3.22 µM | Selectivity index MCF-7 (MCF-7): 1.54 | IC50 (PANC-1): > 25 µM | Selectivity index PANC-1 (PANC-1): 1.00 | IC50 (U-251): > 25 µM | Selectivity index U-251 (U-251): 1.00 | CCNE2 expression (mRNA) (K562 cells): significant decrease | Expression of the ABL gene (mRNA) (K562 cells): significantly enhanced

Source: paper PMC10120462, “Styrylquinazoline derivatives as ABL inhibitors selective for different DFG orientations” (Journal of Enzyme Inhibition and Medicinal Chemistry, 2023)
